Holding throughout (assay type): biochemical
One test has as its target T1, DYRK2 (Homo sapiens, UniProt Q92630).
T1 sequence (Q92630 1-601): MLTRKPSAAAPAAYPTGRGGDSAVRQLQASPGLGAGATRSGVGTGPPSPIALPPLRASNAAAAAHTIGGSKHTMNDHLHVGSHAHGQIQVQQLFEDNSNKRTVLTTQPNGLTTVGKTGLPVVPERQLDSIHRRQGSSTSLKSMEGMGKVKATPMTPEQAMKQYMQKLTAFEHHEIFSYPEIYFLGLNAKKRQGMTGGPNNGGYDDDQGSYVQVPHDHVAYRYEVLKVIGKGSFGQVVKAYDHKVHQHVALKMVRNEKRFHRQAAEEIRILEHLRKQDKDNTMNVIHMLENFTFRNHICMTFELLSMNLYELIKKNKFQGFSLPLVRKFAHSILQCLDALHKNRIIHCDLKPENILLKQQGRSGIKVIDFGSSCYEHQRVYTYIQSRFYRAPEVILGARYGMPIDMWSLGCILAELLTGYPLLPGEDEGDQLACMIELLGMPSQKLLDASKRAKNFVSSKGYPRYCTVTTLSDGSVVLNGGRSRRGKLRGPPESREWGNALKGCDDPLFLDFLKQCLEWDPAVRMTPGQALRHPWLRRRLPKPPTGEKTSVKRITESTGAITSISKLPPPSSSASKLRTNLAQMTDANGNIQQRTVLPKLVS
The test is described as follows: Kinome profiling DYRK2. Particulars: read-out: Inhibitory activity DYRK2; for inhibition at 0.1 µM: 100 nM. Here is the method:
(§1) . The kinome-wide selectivity was determined following the methods previously reported by Mohedas et al., ACS Chem Biol 2013, 8, 1291-1302 and Sanvitale et al., PLoS One 2013, 8, e62721.

In a further test the target is T2, MAP4K2 (Homo sapiens, UniProt Q12851).
T2 sequence (Q12851 1-820): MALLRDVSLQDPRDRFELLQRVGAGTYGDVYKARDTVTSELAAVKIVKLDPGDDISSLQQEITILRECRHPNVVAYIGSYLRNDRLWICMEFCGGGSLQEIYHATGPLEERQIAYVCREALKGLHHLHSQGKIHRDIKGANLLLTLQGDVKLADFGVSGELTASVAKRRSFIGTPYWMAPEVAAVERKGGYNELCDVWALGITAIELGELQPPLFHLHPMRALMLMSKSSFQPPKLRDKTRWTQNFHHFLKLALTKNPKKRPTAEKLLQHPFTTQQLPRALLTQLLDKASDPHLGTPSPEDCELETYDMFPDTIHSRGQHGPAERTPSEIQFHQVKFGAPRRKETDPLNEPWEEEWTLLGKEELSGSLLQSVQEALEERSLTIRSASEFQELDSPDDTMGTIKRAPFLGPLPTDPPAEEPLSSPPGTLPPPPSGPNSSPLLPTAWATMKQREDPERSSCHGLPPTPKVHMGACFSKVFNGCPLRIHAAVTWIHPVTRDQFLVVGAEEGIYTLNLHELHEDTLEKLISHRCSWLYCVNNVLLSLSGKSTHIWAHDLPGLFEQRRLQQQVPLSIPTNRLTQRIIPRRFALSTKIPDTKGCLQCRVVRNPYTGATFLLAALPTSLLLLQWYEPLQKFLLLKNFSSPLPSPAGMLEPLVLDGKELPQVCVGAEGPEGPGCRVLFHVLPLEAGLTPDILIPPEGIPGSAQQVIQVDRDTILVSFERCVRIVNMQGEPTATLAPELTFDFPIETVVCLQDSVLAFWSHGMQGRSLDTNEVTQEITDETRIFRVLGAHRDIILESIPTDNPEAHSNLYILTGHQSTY
The test is described as follows: Kinome profiling MAP4K2. The conditions noted are these: for inhibition at 0.1 µM: 100 nM. On the procedure: as §1

In another test the target is T3, DDR2 (Homo sapiens, UniProt Q16832).
T3 sequence (Q16832 22-855): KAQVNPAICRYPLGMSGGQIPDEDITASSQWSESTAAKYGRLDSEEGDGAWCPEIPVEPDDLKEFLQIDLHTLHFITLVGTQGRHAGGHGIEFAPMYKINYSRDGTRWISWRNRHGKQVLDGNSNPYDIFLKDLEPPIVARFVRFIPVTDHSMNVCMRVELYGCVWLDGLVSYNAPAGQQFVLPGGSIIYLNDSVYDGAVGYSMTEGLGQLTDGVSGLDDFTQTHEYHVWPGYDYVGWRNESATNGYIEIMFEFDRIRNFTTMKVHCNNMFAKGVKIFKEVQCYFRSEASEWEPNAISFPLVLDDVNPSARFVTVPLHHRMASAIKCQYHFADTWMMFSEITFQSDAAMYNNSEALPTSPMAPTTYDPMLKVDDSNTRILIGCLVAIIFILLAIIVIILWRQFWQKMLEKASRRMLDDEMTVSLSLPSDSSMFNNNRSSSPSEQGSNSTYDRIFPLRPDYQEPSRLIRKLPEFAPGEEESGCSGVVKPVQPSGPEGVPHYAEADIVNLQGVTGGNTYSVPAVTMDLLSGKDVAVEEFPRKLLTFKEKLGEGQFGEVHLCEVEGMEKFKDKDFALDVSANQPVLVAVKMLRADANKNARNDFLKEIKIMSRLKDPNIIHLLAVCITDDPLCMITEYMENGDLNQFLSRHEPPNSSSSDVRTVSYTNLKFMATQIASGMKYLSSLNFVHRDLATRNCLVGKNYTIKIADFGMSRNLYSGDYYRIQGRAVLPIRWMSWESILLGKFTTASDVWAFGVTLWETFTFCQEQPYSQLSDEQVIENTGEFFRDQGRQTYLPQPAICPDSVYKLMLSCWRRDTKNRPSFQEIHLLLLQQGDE
Nature of the test: Kinome profiling DDR2. The conditions noted are these: read-out: Inhibitory activity DDR2; for inhibition at 0.1 µM: 100 nM. On the procedure: as §1

A further test deals with LYNB (Homo sapiens, UniProt P07948). Nature of the test: Kinome profiling LYNB. Particulars: read-out: Inhibitory activity LYNB; for inhibition at 0.1 µM: 100 nM. Here is the method:
as §1

For the next test, the target named is AKT3 (Homo sapiens, UniProt Q9Y243). The test is described as follows: Kinome profiling AKT3. The conditions noted are these: read-out: Inhibitory activity AKT3; for inhibition at 0.1 µM: 100 nM. Here is the method:
as §1

The target in the next test is ERBB4 (Homo sapiens, UniProt Q15303). The test is described as follows: Kinome profiling ERBB4. The conditions noted are these: read-out: Inhibitory activity ERBB4; for inhibition at 0.1 µM: 100 nM. On the procedure: as §1
Sequence of ERBB4 (Q15303 26-1308): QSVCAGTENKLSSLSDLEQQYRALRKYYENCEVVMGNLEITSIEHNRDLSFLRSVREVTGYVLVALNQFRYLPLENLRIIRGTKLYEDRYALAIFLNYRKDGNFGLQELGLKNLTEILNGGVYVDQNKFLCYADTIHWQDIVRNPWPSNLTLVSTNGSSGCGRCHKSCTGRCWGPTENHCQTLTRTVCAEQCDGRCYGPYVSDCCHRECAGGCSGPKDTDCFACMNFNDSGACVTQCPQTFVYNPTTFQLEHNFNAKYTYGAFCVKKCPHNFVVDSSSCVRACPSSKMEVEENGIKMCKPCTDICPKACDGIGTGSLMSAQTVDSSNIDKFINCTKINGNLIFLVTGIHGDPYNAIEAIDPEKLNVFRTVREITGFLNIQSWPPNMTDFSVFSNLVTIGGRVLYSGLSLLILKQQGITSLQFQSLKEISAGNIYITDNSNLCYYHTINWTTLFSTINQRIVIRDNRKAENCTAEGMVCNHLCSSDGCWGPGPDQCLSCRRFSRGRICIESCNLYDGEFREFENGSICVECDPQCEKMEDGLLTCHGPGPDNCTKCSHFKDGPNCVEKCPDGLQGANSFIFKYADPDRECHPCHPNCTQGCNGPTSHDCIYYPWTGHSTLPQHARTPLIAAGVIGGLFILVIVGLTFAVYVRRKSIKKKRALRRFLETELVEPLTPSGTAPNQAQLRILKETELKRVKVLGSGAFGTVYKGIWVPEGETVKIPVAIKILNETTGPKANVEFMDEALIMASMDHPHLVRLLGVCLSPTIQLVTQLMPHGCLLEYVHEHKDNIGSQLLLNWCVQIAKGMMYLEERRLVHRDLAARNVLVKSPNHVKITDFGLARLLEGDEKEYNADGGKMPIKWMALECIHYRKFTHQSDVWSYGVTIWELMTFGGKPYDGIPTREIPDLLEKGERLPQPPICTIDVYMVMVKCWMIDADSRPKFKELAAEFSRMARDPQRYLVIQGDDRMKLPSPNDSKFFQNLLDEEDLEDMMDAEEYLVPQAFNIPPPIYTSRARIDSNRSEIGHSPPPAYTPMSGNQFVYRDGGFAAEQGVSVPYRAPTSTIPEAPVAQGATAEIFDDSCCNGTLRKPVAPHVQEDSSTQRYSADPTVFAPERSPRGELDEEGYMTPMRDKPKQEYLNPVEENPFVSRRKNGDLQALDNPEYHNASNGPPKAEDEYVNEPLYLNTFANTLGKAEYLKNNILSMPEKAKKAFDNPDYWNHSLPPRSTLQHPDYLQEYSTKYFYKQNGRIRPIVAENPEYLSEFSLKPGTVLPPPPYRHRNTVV
Setting [1] is: read-out: Inhibitory activity MAP4K2.
The mark [2] stands for this setting: Table 4, read-out: Inhibitory Activity MAP4K2.

Read-outs that look alike come from different tables or passages of the source.

Sequence of AKT3 (Q9Y243 whole entry): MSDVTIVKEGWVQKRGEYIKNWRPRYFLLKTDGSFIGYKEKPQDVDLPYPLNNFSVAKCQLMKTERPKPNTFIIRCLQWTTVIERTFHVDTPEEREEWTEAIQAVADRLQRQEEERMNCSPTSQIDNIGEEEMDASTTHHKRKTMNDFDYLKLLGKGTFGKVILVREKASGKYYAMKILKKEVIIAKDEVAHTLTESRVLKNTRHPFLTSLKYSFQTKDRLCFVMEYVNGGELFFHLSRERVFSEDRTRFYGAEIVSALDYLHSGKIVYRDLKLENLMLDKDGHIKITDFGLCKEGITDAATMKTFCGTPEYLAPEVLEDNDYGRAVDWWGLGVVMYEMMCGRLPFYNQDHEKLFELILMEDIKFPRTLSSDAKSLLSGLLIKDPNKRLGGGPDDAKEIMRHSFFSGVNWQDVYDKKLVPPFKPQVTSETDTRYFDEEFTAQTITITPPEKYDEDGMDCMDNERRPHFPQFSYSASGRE
Sequence of LYNB (P07948 1-491 isoform P07948-2): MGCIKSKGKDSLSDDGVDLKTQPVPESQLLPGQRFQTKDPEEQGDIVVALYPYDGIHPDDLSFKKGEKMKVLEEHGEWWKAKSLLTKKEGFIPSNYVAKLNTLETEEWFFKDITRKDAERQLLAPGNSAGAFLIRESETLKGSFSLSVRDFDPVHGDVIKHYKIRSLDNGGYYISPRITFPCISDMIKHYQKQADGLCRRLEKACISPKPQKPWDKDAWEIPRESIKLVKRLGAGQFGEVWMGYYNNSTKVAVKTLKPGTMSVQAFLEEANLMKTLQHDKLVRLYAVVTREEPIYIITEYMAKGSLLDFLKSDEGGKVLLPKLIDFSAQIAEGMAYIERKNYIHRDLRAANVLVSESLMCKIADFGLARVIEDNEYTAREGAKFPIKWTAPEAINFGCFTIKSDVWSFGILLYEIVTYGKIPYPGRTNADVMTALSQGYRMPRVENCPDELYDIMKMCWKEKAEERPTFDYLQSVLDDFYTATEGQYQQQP

Turning to `COc1cc(-c2cc(-c3ccc(N4CCNCC4)cc3)cnc2N)cc(OC)c1OC` [Compound 15, 5-(4-(piperazin-1-yl)phenyl)-3-(3,4,5-trimethoxyphenyl)pyridin-2-amine], the inhibition at 0.1 µM on DYRK2 was 2%; on MAP4K2 (setting [1]), 36%; at DDR2, 32%; at LYNB it was 35%; at AKT3 it was 0%; at ERBB4, 9%. Besides, the inhibition at 1 µM at DYRK2 amounted to 0%; at MAP4K2 (setting [1]) it was 77%; at DDR2, 86%; at LYNB it was 82%; at AKT3 it was 2%; at ERBB4 it was 29%.
Regarding `COc1cc(-c2cc(-c3ccc(N4CCNCC4)cc3)cnc2C)cc(OC)c1OC` [Compound 10, 1-(4-(6-methyl-5-(3,4,5-trimethoxyphenyl)pyridin-3-yl)phenyl)piperazine], the inhibition at 0.1 µM on DYRK2 was 2%; on MAP4K2 (setting [2]), 16%; on MAP4K2 (setting [1]), 16%; at DDR2, -1%; at LYNB it was 8%; at AKT3, 1%. Besides, the inhibition at 0.1 µM on ERBB4 worked out at 4%. Also, the inhibition at 1 µM on DYRK2 came to 1%; at MAP4K2 (setting [2]), 61%; on MAP4K2 (setting [1]) it was 61%; at DDR2, 20%; on LYNB, 30%; at AKT3, 1%. The inhibition at 1 µM at ERBB4 came out at 21%.

Source of the values: patent US20170190705A1, “Compositions and Methods for Inhibiting BMP” (THE BRIGHAM AND WOMAN'S HOSPITAL, INC., priority 2014, published 2017).
